Here are results for 21 compounds from patent US11970498B2, “CDK2 inhibitors” (BLUEPRINT MEDICINES CORPORATION, priority 2021, dated 2024).

The target in one test is CDK2/Cyclin E (Homo sapiens, UniProt P24941). In words: CDK2/Cyclin E biochemical phosphorylation assay (Caliper mobility shift). The note with it: apparent IC50; 1.0 mM ATP or ATP Km; 1.25 nM enzyme; 25° C.; read-out: CDK2/cyclin E1 IC50. The protocol: (§1) Inhibitory effects of the compounds of the disclosure were measured in biochemical assays that measure the enzymatic phosphorylation activity of CDK enzyme in complex of Cyclin proteins phosphorylates 7.5 micromolar fluorescently labelled peptide substrate, 5-FAM-QSPKKG-CONH2, (FL-Peptide 18, Perkin Elmer, 760362) in the presence of adenosine-5′-triphosphate (ATP) and varying concentrations of the test compound in 100 mM 2-[4-(2-hydroxyethyl)piperazin-1-yl] ethanesulfonic acid (HEPES), pH 7.5, 10 mM MgCl2, 0.015% Brij-35, 1 mM dithiothreitol (DTT), 1.0% dimethylsulfoxide (DMSO). Assays were performed at 1.0 mM ATP or at ATP Km of the CDK enzymes in complex with Cyclin proteins. Reactions proceeded until between 10% to 20% total peptides were phosphorylated at room temperature (25° C.) and were terminated with 35 mM 2,2′,2″,2′″-(ethane-1,2-diyldinitrilo)tetraacetic acid (EDTA). Product was detected using the Caliper mobility shift detection method where the phosphorylated peptide (product) and substrate were electrophoretically separated and measured. Percent activity was plotted against log concentration of compound and points to generate an apparent IC50. The following CDK enzymes in complex with different cyclin proteins were used in these assays: • CDK1/Cyclin B1, GST-tag (BPS, 40454), 1.5 nM used in the assay • CDK2/Cyclin E (Eurofins, 14-475), 1.25 nM used in the assays
(§2) For inhibitory activity against CDK2/Cyclin E mutant, the following designations are used: ≤10 nM=A; >10-20 nM=B; >20-30 nM=C; >30-100 nM=D and >100=E. For inhibition CDK1/Cyclin B1, GST-tag: ≥500 nM=A; <100-500 nM=B; <100 nM=C.

The next test concerns the target T1, CDK1/Cyclin B1, GST-tag (Homo sapiens, UniProt P06493).
T1 construct: GST
In words: CDK1/Cyclin B1 biochemical phosphorylation assay (Caliper mobility shift). The note with it: apparent IC50; 1.0 mM ATP or ATP Km; 1.5 nM enzyme; 25° C. Here is the method:
as §1, §2

T1 sequence (P06493 whole entry): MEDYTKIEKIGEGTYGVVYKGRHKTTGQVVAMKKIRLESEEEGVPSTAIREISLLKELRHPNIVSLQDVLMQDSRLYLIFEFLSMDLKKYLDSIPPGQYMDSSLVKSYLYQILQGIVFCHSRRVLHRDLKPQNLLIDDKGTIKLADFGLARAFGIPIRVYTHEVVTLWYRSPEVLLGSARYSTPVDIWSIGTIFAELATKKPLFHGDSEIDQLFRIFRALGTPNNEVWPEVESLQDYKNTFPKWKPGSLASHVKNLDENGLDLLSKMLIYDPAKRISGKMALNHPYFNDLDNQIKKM
T1 sequence (P14635 whole entry partner): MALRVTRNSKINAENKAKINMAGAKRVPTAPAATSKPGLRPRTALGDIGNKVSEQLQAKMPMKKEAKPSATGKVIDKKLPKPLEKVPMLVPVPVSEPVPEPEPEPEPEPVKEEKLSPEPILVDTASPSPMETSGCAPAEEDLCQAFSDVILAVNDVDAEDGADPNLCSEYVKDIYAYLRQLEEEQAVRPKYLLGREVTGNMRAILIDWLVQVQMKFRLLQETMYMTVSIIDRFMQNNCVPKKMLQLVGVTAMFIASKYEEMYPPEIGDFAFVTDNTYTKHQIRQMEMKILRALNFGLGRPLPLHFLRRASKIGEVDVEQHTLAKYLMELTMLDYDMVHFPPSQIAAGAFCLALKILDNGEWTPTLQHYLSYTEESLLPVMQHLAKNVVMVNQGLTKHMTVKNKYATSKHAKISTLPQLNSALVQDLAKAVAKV

For `C[C@@H](c1ccc(F)nc1)n1ncc2ncc(Nc3cc(OC(F)F)[nH]n3)nc21` (single isomer, unassigned) [Example 152, (R)-N-(5-(difluoromethoxy)-1H-pyrazol-3-yl)-1-(1-(6-fluoropyridin-3-yl)ethyl)-1H-pyrazolo[3,4-b]pyrazin-6-amine or (S)-N-(5-(difluoromethoxy)-1H-pyrazol-3-yl)-1-(1-(6-fluoropyridin-3-yl)ethyl)-1H-pyrazolo[3,4-b]pyrazin-6-amine], the IC50 was 20 to 30 nM on CDK2/Cyclin E and at least 500 nM on CDK1/Cyclin B1, GST-tag.
The like results for `COc1cc(Nc2cnc3cnn(C[C@@H]4CCCOC4)c3n2)n[nH]1` [Example 139, (S)-N-(5-methoxy-1H-pyrazol-3-yl)-1-((tetrahydro-2H-pyran-3-yl)methyl)-1H-pyrazolo[3,4-b]pyrazin-6-amine] were, in that order, 10 to 20 nM and at least 500 nM.
For `COc1cc(Nc2cnc3cnn([C@@H](C)c4ccccn4)c3n2)n[nH]1` [Example 45, (S)-N-(5-methoxy-1H-pyrazol-3-yl)-1-(1-(pyridin-2-yl)ethyl)-1H-pyrazolo[3,4-b]pyrazin-6-amine], in that order: at most 10 nM and at least 500 nM.
The like results for `FC(F)Oc1cc(Nc2cnc3cnn(CC4(C(F)F)CCOCC4)c3n2)n[nH]1` [Example 122, N-(5-(difluoromethoxy)-1H-pyrazol-3-yl)-1-((4-(difluoromethyl)tetrahydro-2H-pyran-4-yl)methyl)-1H-pyrazolo[3,4-b]pyrazin-6-amine] were, in that order, 20 to 30 nM and at least 500 nM.
As for `C[C@@H](c1cc(Cl)ccn1)n1ncc2ncc(Nc3cc(OC(F)F)[nH]n3)nc21` (single isomer, unassigned) [Example 188, (S)-1-(1-(4-chloropyridin-2-yl)ethyl)-N-(5-(difluoromethoxy)-1H-pyrazol-3-yl)-1H-pyrazolo[3,4-b]pyrazin-6-amine or (R)-1-(1-(4-chloropyridin-2-yl)ethyl)-N-(5-(difluoromethoxy)-1H-pyrazol-3-yl)-1H-pyrazolo[3,4-b]pyrazin-6-amine], the IC50 at CDK2/Cyclin E was 30 to 100 nM; on CDK1/Cyclin B1, GST-tag it was at least 500 nM.
As to `C[C@@H]([C@@H]1COCCO1)n1ncc2ncc(Nc3cc(OC(F)F)[nH]n3)nc21` (single isomer, unassigned) [Example 213], the IC50 at CDK2/Cyclin E is 10 to 20 nM; at CDK1/Cyclin B1, GST-tag, at least 500 nM.
Take `OCC1CC(n2ncc3ncc(Nc4cc(OC(F)F)[nH]n4)nc32)C1` (stereo not drawn) [Example 219, (3-(6-((5-(difluoromethoxy)-1H-pyrazol-3-yl)amino)-1H-pyrazolo [3,4-b]pyrazin-1-yl)cyclobutyl)methanol]: the IC50 at CDK2/Cyclin E is 20 to 30 nM; at CDK1/Cyclin B1, GST-tag it was at least 500 nM.
For `FC(F)Oc1cc(Nc2cnc3cnn([C@H](c4ccccn4)C(F)F)c3n2)n[nH]1` (single isomer, unassigned) [Example 150, (S)-1-(2,2-difluoro-1-(pyridin-2-yl)ethyl)-N-(5-(difluoromethoxy)-1H-pyrazol-3-yl)-1H-pyrazolo[3,4-b]pyrazin-6-amine or (R)-1-(2,2-difluoro-1-(pyridin-2-yl)ethyl)-N-(5-(difluoromethoxy)-1H-pyrazol-3-yl)-1H-pyrazolo[3,4-b]pyrazin-6-amine], in that order: 10 to 20 nM and at least 500 nM.
The like results for `C[C@H]([C@@H]1CCOC1)n1ncc2ncc(Nc3cc(OC(F)F)[nH]n3)nc21` (single isomer, unassigned) [Example 11] were, in that order, 20 to 30 nM and at least 500 nM.
The like results for `FC(F)Oc1cc(Nc2cnc3cnn(C[C@H]4CCCOC4)c3n2)n[nH]1` (single isomer, unassigned) [Example 142, (S)-N-(5-(difluoromethoxy)-1H-pyrazol-3-yl)-1-((tetrahydro-2H-pyran-3-yl)methyl)-1H-pyrazolo[3,4-b]pyrazin-6-amine or (R)-N-(5-(difluoromethoxy)-1H-pyrazol-3-yl)-1-((tetrahydro-2H-pyran-3-yl)methyl)-1H-pyrazolo[3,4-b]pyrazin-6-amine] were, in that order, at most 10 nM and 100 to 500 nM.
For `Fc1cncc(Cn2ncc3ncc(Nc4cc(OC(F)F)[nH]n4)nc32)c1` [Example 42, N-(5-(difluoromethoxy)-1H-pyrazol-3-yl)-1-((5-fluoropyridin-3-yl)methyl)-1H-pyrazolo[3,4-b]pyrazin-6-amine], the IC50 on CDK2/Cyclin E is 20 to 30 nM; at CDK1/Cyclin B1, GST-tag, at least 500 nM.
For `FC(F)Oc1cc(Nc2cnc3cnn(C4CCC(F)(F)CC4)c3n2)n[nH]1` [Example 44, 1-(4,4-difluorocyclohexyl)-N-(5-(difluoromethoxy)-1H-pyrazol-3-yl)-1H-pyrazolo[3,4-b]pyrazin-6-amine], in that order: 10 to 20 nM and at least 500 nM.
For `FC(F)Oc1cc(Nc2cnc3cnn(Cc4cccnc4)c3n2)n[nH]1` [Example 35, N-(5-(difluoromethoxy)-1H-pyrazol-3-yl)-1-(pyridin-3-ylmethyl)-1H-pyrazolo[3,4-b]pyrazin-6-amine], in that order: at most 10 nM and at least 500 nM.
On to `FC(F)Oc1cc(Nc2cnc3cnn(C[C@H]4CCOC4)c3n2)n[nH]1` (single isomer, unassigned) [Example 143, (R)-N-(5-(difluoromethoxy)-1H-pyrazol-3-yl)-1-((tetrahydrofuran-3-yl)methyl)-1H-pyrazolo[3,4-b]pyrazin-6-amine or (S)-N-(5-(difluoromethoxy)-1H-pyrazol-3-yl)-1-((tetrahydrofuran-3-yl)methyl)-1H-pyrazolo[3,4-b]pyrazin-6-amine], for which the IC50 is 10 to 20 nM at CDK2/Cyclin E and at least 500 nM on CDK1/Cyclin B1, GST-tag.
For `N#C[C@@H]1C[C@H]1Cn1ncc2ncc(Nc3cc(OC(F)F)[nH]n3)nc21` (single isomer, unassigned) [Example 26, (1R,2R)-2-((6-((5-(difluoromethoxy)-1H-pyrazol-3-yl)amino)-1H-pyrazolo[3,4-b]pyrazin-1-yl)methyl)cyclopropane-1-carbonitrile or (1S,2S)-2-((6-((5-(difluoromethoxy)-1H-pyrazol-3-yl)amino)-1H-pyrazolo[3,4-b]pyrazin-1-yl)methyl)cyclopropane-1-carbonitrile], the IC50 is over 100 nM at CDK2/Cyclin E and at least 500 nM at CDK1/Cyclin B1, GST-tag.
The like results for `[2H]C([2H])(c1cccnc1)n1ncc2ncc(Nc3cc(OC(F)F)[nH]n3)nc21` [Example 224, N-(5-(difluoromethoxy)-1H-pyrazol-3-yl)-1-(pyridin-3-ylmethyl-d2)-1H-pyrazolo[3,4-b]pyrazin-6-amine] were, in that order, at most 10 nM and at least 500 nM.
The like results for `CC[C@@H]([C@@H](C)O)n1ncc2ncc(Nc3cc(OC(F)F)[nH]n3)nc21` (single isomer, unassigned) [Example 201, (2R,3S)-3-(6-((5-(difluoromethoxy)-1H-pyrazol-3-yl)amino)-1H-pyrazolo[3,4-b]pyrazin-1-yl)pentan-2-ol or (2R,3R)-3-(6-((5-(difluoromethoxy)-1H-pyrazol-3-yl)amino)-1H-pyrazolo[3,4-b]pyrazin-1-yl)pentan-2-ol] were, in that order, over 100 nM and at least 500 nM.
For `C[C@@H](C1COC1)n1ncc2ncc(Nc3cc(OC(F)F)[nH]n3)nc21` [Example 72, (S)-N-(5-(difluoromethoxy)-1H-pyrazol-3-yl)-1-(1-(oxetan-3-yl)ethyl)-1H-pyrazolo[3,4-b]pyrazin-6-amine], in that order: at most 10 nM and at least 500 nM.
In the case of `FC[C@@H](c1cccnc1)n1ncc2ncc(Nc3cc(OC(F)F)[nH]n3)nc21` (single isomer, unassigned) [Example 19, (R)—N-(5-(difluoromethoxy)-1H-pyrazol-3-yl)-1-(2-fluoro-1-(pyridin-3-yl)ethyl)-1H-pyrazolo[3,4-b]pyrazin-6-amine or (S)—N-(5-(difluoromethoxy)-1H-pyrazol-3-yl)-1-(2-fluoro-1-(pyridin-3-yl)ethyl)-1H-pyrazolo[3,4-b]pyrazin-6-amine], the IC50 was at most 10 nM on CDK2/Cyclin E and 100 to 500 nM at CDK1/Cyclin B1, GST-tag.
As to `Fc1ccc(Cn2ncc3ncc(Nc4cc(OC(F)F)[nH]n4)nc32)cn1` [Example 41, N-(5-(difluoromethoxy)-1H-pyrazol-3-yl)-1-((6-fluoropyridin-3-yl)methyl)-1H-pyrazolo[3,4-b]pyrazin-6-amine], the IC50 on CDK2/Cyclin E was at most 10 nM; at CDK1/Cyclin B1, GST-tag, at least 500 nM.
Consider `Cc1ncccc1Cn1ncc2ncc(Nc3cc(OC(F)F)[nH]n3)nc21` [Example 95, N-(5-(difluoromethoxy)-1H-pyrazol-3-yl)-1-((2-methylpyridin-3-yl)methyl)-1H-pyrazolo[3,4-b]pyrazin-6-amine], for which the IC50 is 20 to 30 nM on CDK2/Cyclin E and at least 500 nM on CDK1/Cyclin B1, GST-tag.
